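Cultured in 96-well plates, cells were exposed to test compound for 48 hours across five concentrations. The concentration for 50% growth inhibition is given as GI50.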 The source made the active and inactive calls. Rule as the data show it: active = GI50 up to about 1.1 µM and inactive = higher.
Assays:
Experiment in all cases: NCI anticancer screen, dose series, 48 h
A549 = tested on: A549
COLO 205 = tested on: COLO 205
K562 = tested on: K562
UACC-62 = tested on: UACC-62
MDA-MB-435 = tested on: MDA-MB-435
IGROV-1 = tested on: IGROV-1
MOLT-4 = tested on: MOLT-4
HT-29 = tested on: HT-29
SNB-19 = tested on: SNB-19
M14 = tested on: M14
A498 = tested on: A498
SW-620 = tested on: SW-620
U-251 = tested on: U-251
Hs-578T = tested on: Hs-578T
HCT-116 = tested on: HCT-116
SF-539 = tested on: SF-539
ACHN = tested on: ACHN
SK-OV-3 = tested on: SK-OV-3
SR = tested on: SR
NCI-H226 = tested on: NCI-H226

Measured: GI50

CC(C)(C)OC(=O)C(C1NC(C(=O)O)C(C)(C)S1)N1C(=O)c2ccccc2C1=O (stereo not drawn)
inactive: A549 > 100 µM | COLO 205 > 100 µM | K562 > 100 µM | UACC-62 > 100 µM | MDA-MB-435 > 100 µM | IGROV-1 > 100 µM | MOLT-4 > 100 µM | HT-29 > 100 µM | SNB-19 > 100 µM | M14 > 100 µM | A498 > 100 µM | SW-620 > 100 µM | U-251 > 100 µM | Hs-578T > 100 µM | HCT-116 > 100 µM | SF-539 > 100 µM | ACHN > 100 µM | SK-OV-3 > 100 µM | SR > 100 µM

O=c1c(Cc2c(O)ccc3ccccc23)nnc2sc(-c3nn4c(=O)c(Cc5c(O)ccc6ccccc56)nnc4s3)nn12
inactive: A549 > 100 µM | K562 > 100 µM | UACC-62 29 µM | MDA-MB-435 > 100 µM | IGROV-1 > 100 µM | MOLT-4 > 10 µM | HT-29 > 100 µM | SNB-19 38.5 µM | M14 > 100 µM | A498 42.2 µM | SW-620 > 100 µM | U-251 26.2 µM | Hs-578T 10.8 µM | HCT-116 > 100 µM | ACHN 57.4 µM | SR > 100 µM

Oc1ccc(-c2nc(-c3cccnc3)c(-c3ccc(F)cc3)[nH]2)cc1
inactive: A549 21.8 µM | COLO 205 19.5 µM | K562 16 µM | UACC-62 16 µM | MDA-MB-435 16.2 µM | IGROV-1 17.5 µM | MOLT-4 10 µM | HT-29 18.1 µM | SNB-19 25.2 µM | M14 17.7 µM | NCI-H226 21.5 µM | SW-620 17.8 µM | U-251 17.3 µM | Hs-578T 20.9 µM | HCT-116 17.4 µM | ACHN 20.5 µM | SK-OV-3 23.4 µM | SR 16.9 µM

CCOC(=O)C1(C(=O)OCC)CC(=O)[C@@]2(C1)OCC[C@H]1OC(=O)C[C@H]12
inactive: A549 > 100 µM | COLO 205 > 100 µM | UACC-62 > 100 µM | MDA-MB-435 > 100 µM | IGROV-1 > 100 µM | MOLT-4 > 100 µM | HT-29 > 100 µM | SNB-19 > 100 µM | M14 > 100 µM | A498 > 100 µM | SW-620 > 100 µM | U-251 > 100 µM | Hs-578T > 100 µM | HCT-116 > 100 µM | SF-539 > 100 µM | ACHN > 100 µM | SR > 100 µM

CC1=CC(O)CC(C)(C)C1/C=C/C(C)=C/C=C/C(C)=C/C=C/C=C(C)/C=C/C=C(C)/C=C/C1=C(C)CC(O)CC1(C)C (stereo not drawn)
inactive: A549 35.6 µM | COLO 205 20.7 µM | K562 38.3 µM | UACC-62 15 µM | MDA-MB-435 17.5 µM | IGROV-1 26.5 µM | MOLT-4 20.9 µM | HT-29 14.9 µM | SNB-19 53.2 µM | M14 13.8 µM | NCI-H226 21.4 µM | SW-620 19.1 µM | Hs-578T 80.5 µM | HCT-116 15.7 µM | ACHN 16.6 µM | SK-OV-3 40.8 µM | SR 15.7 µM

COC(=O)c1ccc(/C=C2\Oc3cc(O)ccc3C2=O)cc1
inactive: A549 77.3 µM | COLO 205 > 100 µM | K562 47.8 µM | UACC-62 > 100 µM | MDA-MB-435 > 100 µM | IGROV-1 > 100 µM | MOLT-4 43.7 µM | SNB-19 69.8 µM | M14 83.8 µM | NCI-H226 55.3 µM | SW-620 78.2 µM | U-251 48.8 µM | Hs-578T 52.4 µM | HCT-116 63.5 µM | SF-539 > 100 µM | ACHN 31.7 µM | SK-OV-3 > 100 µM | SR 42.3 µM

CSc1ccc(/C=C2\N=C(c3ccccc3)N(c3nc4c(Cl)cc(Cl)cc4s3)C2=O)cc1
inactive: A549 21.4 µM | COLO 205 33.4 µM | K562 26.7 µM | UACC-62 24.4 µM | MDA-MB-435 16.6 µM | IGROV-1 35.3 µM | MOLT-4 18.6 µM | HT-29 19.8 µM | SNB-19 28.9 µM | M14 25.7 µM | A498 17 µM | SW-620 29.4 µM | U-251 17.1 µM | Hs-578T 21.9 µM | HCT-116 19.1 µM | SF-539 34.5 µM | ACHN 27 µM | SK-OV-3 25.9 µM | SR 20.9 µM

O=C1/C(=C/c2ccccc2S)N=C(c2ccccc2)N1c1ccc2c(c1)Sc1cc(N3C(=O)/C(=C/c4ccccc4S)N=C3c3ccccc3)ccc1N2
inactive: A549 17.4 µM | COLO 205 31.4 µM | K562 22 µM | UACC-62 20.1 µM | MDA-MB-435 21.1 µM | IGROV-1 15.7 µM | MOLT-4 19.6 µM | HT-29 34.4 µM | SNB-19 16.7 µM | M14 17.9 µM | A498 19.1 µM | SW-620 19.8 µM | U-251 19.7 µM | Hs-578T 25.6 µM | HCT-116 21.3 µM | SF-539 11.8 µM | ACHN 18.6 µM | SK-OV-3 17.8 µM | SR 15.7 µM

COc1ccc2c(c1)-c1[nH]c3ccc(OC)cc3c1CC2
inactive: A549 14.3 µM | COLO 205 18 µM | K562 8.99 µM | UACC-62 15.1 µM | MDA-MB-435 17.4 µM | IGROV-1 13.6 µM | MOLT-4 11 µM | HT-29 12.3 µM | SNB-19 14.8 µM | M14 15 µM | NCI-H226 11.8 µM | SW-620 22.4 µM | U-251 17.3 µM | Hs-578T 13.4 µM | HCT-116 17.1 µM | SF-539 18.2 µM | ACHN 19.6 µM | SK-OV-3 18.6 µM | SR 13.6 µM

COc1ccccc1N1C(=O)/C(=C\c2cccc(Oc3ccccc3)c2)SC1c1ccccc1 (stereo not drawn)
inactive: A549 34.3 µM | COLO 205 15.3 µM | K562 15 µM | UACC-62 5.75 µM | MDA-MB-435 28.6 µM | IGROV-1 21.1 µM | MOLT-4 31 µM | HT-29 32.4 µM | SNB-19 31 µM | M14 24.4 µM | A498 > 100 µM | SW-620 17.8 µM | U-251 38.4 µM | Hs-578T 39.4 µM | HCT-116 16.5 µM | SF-539 34.5 µM | ACHN 35.5 µM | SK-OV-3 47.4 µM | SR 19.6 µM

CCC(CN(C)C)C(=O)c1ccco1 (stereo not drawn)
inactive: A549 > 100 µM | K562 > 100 µM | UACC-62 > 100 µM | MDA-MB-435 > 100 µM | IGROV-1 > 100 µM | MOLT-4 22.3 µM | HT-29 > 100 µM | SNB-19 > 100 µM | M14 > 100 µM | A498 > 100 µM | SW-620 > 100 µM | U-251 > 100 µM | Hs-578T 98.6 µM | HCT-116 > 100 µM | ACHN > 100 µM | SK-OV-3 > 100 µM | SR > 100 µM

COP(=O)(OC)C(O)/C=C(\Cl)c1ccc(Cl)cc1 (stereo not drawn)
inactive: A549 > 100 µM | COLO 205 > 100 µM | K562 43.5 µM | UACC-62 56 µM | MDA-MB-435 40.7 µM | IGROV-1 > 100 µM | MOLT-4 28.1 µM | HT-29 > 100 µM | SNB-19 75.5 µM | M14 62.1 µM | NCI-H226 > 100 µM | SW-620 38.8 µM | U-251 53.2 µM | Hs-578T > 100 µM | HCT-116 18.4 µM | SF-539 > 100 µM | ACHN 85.1 µM | SK-OV-3 > 100 µM | SR 21.3 µM

O=C(Nc1ccc(Cl)cc1)NS(=O)(=O)c1coc2cc(F)ccc2c1=O
inactive: A549 > 100 µM | COLO 205 > 100 µM | K562 19.7 µM | UACC-62 26.2 µM | MDA-MB-435 30.6 µM | IGROV-1 > 100 µM | MOLT-4 > 100 µM | HT-29 > 100 µM | SNB-19 > 100 µM | M14 > 100 µM | NCI-H226 > 100 µM | SW-620 > 100 µM | U-251 62.2 µM | Hs-578T > 100 µM | HCT-116 > 10 µM | SF-539 87.7 µM | ACHN 16.4 µM | SK-OV-3 > 100 µM | SR 95.9 µM

Cc1c(Cc2ccccc2)n(COCCCO)c(=O)[nH]c1=O
inactive: A549 > 100 µM | COLO 205 > 100 µM | K562 > 100 µM | UACC-62 > 100 µM | MDA-MB-435 > 100 µM | IGROV-1 > 100 µM | MOLT-4 > 100 µM | HT-29 > 100 µM | SNB-19 > 100 µM | M14 > 100 µM | NCI-H226 > 100 µM | A498 > 100 µM | SW-620 > 100 µM | U-251 > 100 µM | Hs-578T > 100 µM | HCT-116 > 100 µM | SF-539 > 100 µM | ACHN > 100 µM | SK-OV-3 > 100 µM

CN1CCc2c([nH]c3ccccc23)C1
inactive: A549 > 100 µM | COLO 205 > 100 µM | K562 > 100 µM | UACC-62 > 100 µM | MDA-MB-435 > 100 µM | IGROV-1 > 100 µM | MOLT-4 > 100 µM | HT-29 > 100 µM | SNB-19 > 100 µM | M14 > 100 µM | NCI-H226 > 100 µM | SW-620 > 100 µM | U-251 > 100 µM | Hs-578T > 100 µM | HCT-116 > 100 µM | ACHN > 100 µM | SK-OV-3 > 100 µM | SR > 100 µM

Reference: ChEMBL document CHEMBL1201862, “PubChem BioAssay data set” (2004)
